This note sets out measurements from PMC8217011, “Natural brominated phenoxyphenols kill persistent and biofilm-incorporated cells of MRSA and other pathogenic bacteria” (Applied Microbiology and Biotechnology, 2020).

For assay [1], the system named is Enterobacter cloacae isolate 3678. The experiment in a line: MIC determination (broth microdilution in LB medium). The format is cell-based. The protocol:
(§1) The minimal inhibitory concentration (MIC) has been determined according to the CSLI guidelines (CLSI [2012]). Briefly, in a sterile polystyrene U-bottom 96-well plate, a 2-fold serial dilution ranging from 100 to 0.78 μM of testing compounds has been prepared in 50 μL MHB. A freshly inoculated S. aureus culture was grown until OD600 nm of approx. 0.6 and diluted to 10^6 CFU/mL in MHB. Finally, 50 μL of the latter cell suspension was added to each well and then incubated statically for 18–24 h at 37 °C. MIC was determined using BacTiterGlo ATP assay (Promega, Madison, WI, USA) and Tecan Infinite F200 Pro (Tecan, Männedorf, Switzerland). Moxifloxacin and DMSO were used as positive and negative control, respectively. Sublethal concentrations of colistin (0.1 μM) were used in some experiments to increase the permeability of the gram-negative cell envelope for compound testing. For E. cloacae, a broth microdilution assay was performed using a serial 2-fold dilution in 96-well flat-bottomed plates (Falcon, BD Bioscience, Heidelberg) of both PPs in broth LB medium (Roth, Karlsruhe) at a concentration range of 50–0.024 μM.
For orientation: Dilution methods test growth across graded concentrations, often in twofold steps.

Assay [2] relates to S. aureus mutant M1 (parental strain ATCC 25923). The experiment in a line: MIC of spontaneously resistant mutant. As to conditions: for MIC90: Staphylococcus aureus, ATCC25923. The format is cell-based, Staphylococcus aureus. The protocol: as §1
(§2) Spontaneous resistant mutants have been generated with 2-bromo-PP and 3-bromo-PP to further investigate the mechanism of antibacterial action and resistance. Since isolation of spontaneous resistant mutants in one step was not successful on solid media containing 2-bromo-PP or 3-bromo-PP (i.e. resistance frequency < 10^−7 at 5-fold MIC), enrichment was done by passaging bacteria daily in liquid media containing increasing sublethal concentrations of PPs. […] Moreover, we observed cross-resistance between PPs since 2-bromo-PP-resistant mutants were also resistant against 3-bromo-PP and vice versa (Fig. 4a; Table 2).

Assay [3] deals with S. aureus mutant M4 (parental strain Mu50). The experiment in a line: MIC of spontaneously resistant mutant. The format is cell-based, Staphylococcus aureus. As to conditions: for MIC90: Staphylococcus aureus. Here is the method:
as §1, §2

Assay [4] relates to preformed biofilms of MRSA Mu50. Description: Antibiofilm activity assay, viability by Resazurin reduction. The format is cell-based, Staphylococcus aureus. As to conditions: preformed 24 h biofilms. Here is the method:
Sterile flat-bottom 96-well polystyrene plates were used for the assay. Some S. aureus colonies were picked from an MHA plate and resuspend in MHB + 10% glucose, and cell density was adjusted to 10^8 cells per mL. One hundred microlitres of cell suspension was added to each well, and the plate was incubated statically for 24 h to induce growth and maturation of biofilms. After 24 h, the wells were washed three times with PBS to remove planktonic cells, and compounds were added to the wells to check for antibiofilm activity. To check for inhibition of biofilm formation, compounds were added immediately after adding of cells to the wells in sublethal concentrations. Lysostaphin, moxifloxacin and DMSO served as positive and negative controls, respectively.
Viability was measured as described above utilizing the Resazurin reduction assay. Biofilm formation was measured using crystal violet staining as described elsewhere (Christensen et al. [1985]; Stepanovic et al. [2007]). Briefly, biofilms were washed three times with PBS and allowed to air dry before 0.1% (v/v) crystal violet solution (Waldeck GmbH & Co., Münster, Germany) was added to each well. The biofilms were stained for 15 min at room temperature (RT). […] Finally, 100 μL was transferred to a fresh 96-well plate to measure absorption at 600 nm with a plate reader.

The subject of assay [5] is preformed biofilms of P. aeruginosa POA1. Described as above. Type of assay: cell-based, Pseudomonas aeruginosa.
Another assay concerns S. aureus. The experiment in a line: Generation of spontaneous resistant mutants. Type of assay: cell-based, Staphylococcus aureus. As to conditions: for fold increased MIC of mutants: after 15 passages in liquid media with increasing sublethal concentrations; for resistance frequency: one-step selection on solid media at 5-fold MIC.
Text: as §2

Assay [6] relates to MRSA vector control strain harbouring empty plasmid pLA03. The experiment in a line: MIC in recombinant strain, empty vector control. Type of assay: cell-based. Particulars: Staphylococcus aureus. Here is the method:
(§3) To corroborate the role as potential determinants of resistance, mtlA and tetR were overexpressed under control of an anhydrotetracycline (Atc)-inducible promoter, and the effect on sensitivity toward 3-bromo-PP was analysed (Fig. 4e). […] However, induction of mtlA or tetR expression in the presence of Atc strongly rendered the cells more susceptible to 3-bromo-PP resulting in MICs of 0.019 μM for mtlA and 0.078 μM for tetR overexpression, respectively. This translates into a […] and 8-fold increased sensitivity during mtlA or tetR overexpression, respectively, compared with the empty vector control (Fig. 4e).

Assay [7] has as its system MRSA strain containing pLA03::mtlA. The experiment in a line: MIC in recombinant strain, mtlA overexpression. The format is cell-based, Staphylococcus aureus. As to conditions: for MIC: Staphylococcus aureus, MRSA. The protocol: as §3
Assay [8] deals with MRSA strain containing pLA03::tetR. The experiment in a line: MIC in recombinant strain, tetR overexpression. The format is cell-based, Staphylococcus aureus. Particulars: for MIC: Staphylococcus aureus, MRSA. Here is the method:
as §3

The mark [9] stands for this setting: induced with Atc (1 μg/mL anhydrotetracycline).

“And” between values parts separate entries of the source, which are not always exact repeats. Equal values may be shown once. Where only a bound is given, the exact number is not on record here.

Broadly, the MIC90 is an inhibitory concentration at the 90% level, which refers to growth in some studies and to a panel of isolates in others. The term MIC denotes the smallest concentration in the dilution series that meets the test's criterion for growth inhibition.

For `Oc1c(Br)cc(Br)cc1Oc1ccc(Br)cc1Br` [2-bromo-PP, 4,6-dibromo-2-(2′,4′-dibromophenoxy)phenol], the MIC90 in assay [1] was 12.5 µM and 6.27 µg/mL; in [2] it was 1.56 µM and 0.78 µg/mL; in assay [3] it was 1.56 µM and 0.78 µg/mL. Further, the “concentration inhibiting viability of cells in biofilms (maximal effect)” value in assay [4] came to 100 µM. In addition, in assay [5], the “concentration of complete inhibition of cell viability in biofilms” value amounted to 25 µM. Also, in the assay on S. aureus, the “fold increased MIC of mutants” value is on record as 4 fold. Also, the resistance frequency in the assay with S. aureus is listed as < 10^−7.

On to `Oc1c(Br)cc(Br)c(Br)c1Oc1ccc(Br)cc1Br` [3-bromo-PP, 3,4,6-tribromo-2-(2′,4′-dibromophenoxy)phenol], for which the MIC90 in assay [1] is 12.5 µM and 7.26 µg/mL; in assay [2], 3.12 µM and 1.81 µg/mL; in assay [3] it was 3.12 µM and 1.81 µg/mL. Further, the “MIC shift against 3-bromo-PP” value in assay [2] (mutant M1 raised against 2-bromo-PP, vs parental strain) worked out at 4 ×; in [3] (mutant M4 raised against 3-bromo-PP, vs parental strain Mu50), 32 ×. Further, the “concentration inhibiting viability of cells in biofilms (maximal effect)” value in assay [4] amounted to 12.5 µM. Besides, the “concentration of complete inhibition of cell viability in biofilms” value in assay [5] is 50 µM. Besides, the “fold increased MIC of mutants” value in the assay on S. aureus came out at 32 fold. For the same molecule, in the assay on S. aureus, the resistance frequency is reported as < 10^−7. Moreover, the MIC is about 0.625 µM in assay [6]; 0.019 µM in [7] (setting [9]); 0.312 µM in [7] (non-induced); 0.078 µM in assay [8] (setting [9]); 0.312 µM in [8] (non-induced). Further, the “increased sensitivity compared with the empty vector control” value was 33 fold in [7] (mtlA overexpression) and 8 fold in [8] (tetR overexpression).
